Entries after “also recorded” stand apart in the source; their conditions may differ.
System: rat valproic acid-exposed autism model
Test: Sociability test (3 chamber) in rat embryonic valproic acid-exposed autism model
Format: in vivo
Details: compound A 0.2 or 1 mg/kg orally once a day for 14 days from 3 weeks of age; male Sprague-Dawley offspring exposed to VPA 500 mg/kg i.p.; test at 5 weeks of age; FIG. 1
Protocol: Rat embryonic valproic acid-exposed autism model was used for the test. Sodium valproate (VPA) 500 mg/kg (mpk) was intraperitoneally administered to Sprague-Dawley pregnant rats on the 12.5th day in the embryonic stage. The offspring was weaned on the 21st day after birth, and only the male rat was used for the experiment. Compound A (0.2 or 1 mg/kg) was orally administered once a day at 18 o'clock for 14 days from 3 weeks of age after weaning and a behavioral test was conducted at 5 weeks of age. As unknown rat (Stranger rat), a purchased male rat of the same strain and the same week of age was used with no contact with the rat to be tested (test rat) until the day of the test.
In the experiment, a black plastic 3 chamber experimental apparatus (90×60×34 cm, each chamber 30×60×34 cm) was used. […]
On the day of the test, the rats to be tested and unknown rats were acclimated to the test environment for 1 hour or more and then the test was started. […] The sniffing to each cylinder (action of sniffing an object or an animal) was visually measured for 10 min. A sniffing index, which is an indicator of interest to other animal, was calculated by the following formula based on the sniffing time to each cylinder for 10 min. […]

## CC(=O)NCC[C@@H]1CCc2ccc3nc(C)oc3c21 [compound A, (S)—N-[2-(2-methyl-7,8-dihydro-6H-indeno[5,4-d][1,3]oxazol-8-yl)ethyl]acetamide]
  effect on social disorder / social performance (Sniffing index, Sniffing time to object): significant (# P≤0.025) improvement effect on social performance; also recorded: showed effectiveness on the social disorder

From patent US10759768B2, “Prophylactic or therapeutic agent for autism spectrum disorder” (priority 2016, dated 2020)
